Where two headings read alike, the source gives them in different places. *1 amine or outer side, *2 acyl side, *3 side chain or, on linkers, in order; H or OH if unused. Where a SMILES comes first, the peptide text is derived from it. Bridges are numbered along the chain shown (N, C = ends). [ ]: non-standard residue; d: D form. The star is where a group is joined. hTyr(3S-OH,4S-OH,3'-OSO3H) = N[C@H](C(=O)O)[C@H](O)[C@@H](O)c1ccc(O)c(OS(=O)(=O)O)c1; Orn(4R-OH,5R-OH) = O=C([C@H](C[C@@H](O)[C@@H](O)N[*:3])N[*:1])[*:2]; Pro(3S-OH,4S-Me) = C[C@H]1CN[C@H](C(=O)O)[C@H]1O; X1 = CCCCCOc1ccc(-c2cc(-c3ccc(C(=O)*)cc3)no2)cc1; Gln(3R-OH) = NC(=O)C[C@@H](O)[C@H](N)C(=O)O; Hyp = O=C(O)[C@@H]1C[C@@H](O)CN1
Tested on: C. elegans
[1] = Table S2, C. elegans SS assay, 110 μM, 0 h, averages of 4 data points
[2] = Table S2, C. elegans SS assay, 110 μM, 24 h, averages of 4 data points

| SMILES | Percentage of motility inhibition 0 h [1] [%] | Percentage of motility inhibition 24 h [2] [%] | Percentage of motility inhibition 0 h (110 µM) [%] | Percentage of motility inhibition 24 h (110 µM) [%] |
| --- | --- | --- | --- | --- |
| CO[C@]1(CC[C@@H](C)CO[C@@H]2O[C@H](CO)[C@@H](O)[C@H](O)[C@H]2O)O[C@H]2C[C@H]3[C@@H]4CC=C5C[C@@H](O[C@@H]6O[C@H](CO)[C@@H](O)[C@H](O[C@@H]7O[C@H](CO)[C@@H](O)[C@H](O)[C@H]7O)[C@H]6O[C@@H]6O[C@@H](C)[C@H](O)[C@@H](O)[C@H]6O)CC[C@]5(C)[C@H]4CC[C@]3(C)[C@H]2[C@@H]1C [Methyl protogracillin] | 0 | 15 |  |  |
| COc1ccc2c(c1OC)O[C@H]1c3ccc(O[C@@H]4O[C@H](CO)[C@@H](O)[C@H](O)[C@H]4O)cc3OC[C@@H]21 [Methylnissolin‐3‐O‐glucoside] | 8 | 7 |  |  |
| Cc1c(O)c(C)c2c(c1O)C(=O)[C@H](Cc1ccc3c(c1)OCO3)CO2 [Methylophiopogonanone A] | 21 | 0 |  |  |
| COc1ccc(C[C@@H]2COc3c(C)c(O)c(C)c(O)c3C2=O)cc1 [Methylophiopogonanone B] | 0 | 21 |  |  |
| Cc1c(O)c(C)c2occ(Cc3ccc4c(c3)OCO4)c(=O)c2c1O [Methylophiopogonone A] | 0 | 0 |  |  |
| CC1(C)S[C@@H]2[C@H](NC(=O)[C@H](NC(=O)N3CCN(S(C)(=O)=O)C3=O)c3ccccc3)C(=O)N2[C@H]1C(=O)[O-].[Na+] [Mezlocillin (sodium)] | 0 | 4 |  |  |
| CN1CCN2c3ccccc3Cc3ccccc3C2C1.Cl (centres unmarked) [Mianserin (hydrochloride)] | 0 | 0 |  |  |
| CCCCCOc1ccc(-c2cc(-c3ccc(C(=O)N[C@H]4C[C@@H](O)[C@@H](O)NC(=O)[C@@H]5[C@@H](O)[C@@H](C)CN5C(=O)[C@H]([C@H](O)CC(N)=O)NC(=O)[C@H]([C@H](O)[C@@H](O)c5ccc(O)c(OS(=O)(=O)[O-])c5)NC(=O)[C@@H]5C[C@@H](O)CN5C(=O)[C@H]([C@@H](C)O)NC4=O)cc3)no2)cc1.[Na+] [Micafungin (sodium)] (X1-[Orn(4R-OH,5R-OH)]T[Hyp][hTyr(3S-OH,4S-OH,3'-OSO3H)][Gln(3R-OH)][Pro(3S-OH,4S-Me)]; lactam 1-C) | 3 | 0 |  |  |
| Clc1ccc(COC(Cn2ccnc2)c2ccc(Cl)cc2Cl)c(Cl)c1.O=[N+]([O-])O (centres unmarked) [Miconazole (nitrate)] | 26 | 15 |  |  |
| COC(=O)C1=CO[C@@H](C)[C@H]2CN3CC[C@]4(C(=O)Nc5ccccc54)[C@@H]3C[C@H]12 [Mitraphylline] | 0 | 21 |  |  |
| C[C@H](CC[C@@H](O[C@@H]1O[C@H](CO)[C@@H](O)[C@H](O)[C@H]1O[C@@H]1O[C@H](CO)[C@@H](O)[C@H](O)[C@H]1O)C(C)(C)O)[C@H]1CC[C@@]2(C)[C@@H]3CC=C4[C@@H](CC[C@H](O[C@@H]5O[C@H](CO)[C@@H](O)[C@H](O)[C@H]5O)C4(C)C)[C@]3(C)[C@H](O)C[C@]12C [Mogroside III-E] | 25 | 17 |  |  |
| C[C@H](CC[C@@H](O[C@@H]1O[C@H](CO[C@@H]2O[C@H](CO)[C@@H](O)[C@H](O)[C@H]2O)[C@@H](O)[C@H](O)[C@H]1O)C(C)(C)O)[C@H]1CC[C@@]2(C)[C@@H]3CC=C4[C@@H](CC[C@H](O[C@@H]5O[C@H](CO)[C@@H](O)[C@H](O)[C@H]5O)C4(C)C)[C@]3(C)[C@H](O)C[C@]12C [Mogroside III] | 7 | 3 |  |  |
| C[C@H](CC[C@@H](O[C@@H]1O[C@H](CO)[C@@H](O)[C@H](O)[C@H]1O)C(C)(C)O)[C@H]1CC[C@@]2(C)[C@@H]3CC=C4[C@@H](CC[C@H](O[C@@H]5O[C@H](CO)[C@@H](O)[C@H](O)[C@H]5O)C4(C)C)[C@]3(C)[C@H](O)C[C@]12C [Mogroside IIe] | 0 | 7 |  |  |
| C[C@H](CC[C@@H](O[C@@H]1O[C@H](CO[C@@H]2O[C@H](CO)[C@@H](O)[C@H](O)[C@H]2O)[C@@H](O)[C@H](O)[C@H]1O)C(C)(C)O)[C@H]1CC[C@@]2(C)[C@@H]3CC=C4[C@@H](CC[C@H](O[C@@H]5O[C@H](CO[C@@H]6O[C@H](CO)[C@@H](O)[C@H](O)[C@H]6O)[C@@H](O)[C@H](O)[C@H]5O)C4(C)C)[C@]3(C)[C@H](O)C[C@]12C [Mogroside IV-A] | 0 | 0 |  |  |
| C[C@H](CC[C@@H](O[C@@H]1O[C@H](CO)[C@@H](O)[C@H](O)[C@H]1O[C@@H]1O[C@H](CO)[C@@H](O)[C@H](O)[C@H]1O)C(C)(C)O)[C@H]1CC[C@@]2(C)[C@H]3CC=C4[C@@H](CC[C@H](O[C@@H]5O[C@H](CO[C@@H]6O[C@H](CO)[C@@H](O)[C@H](O)[C@H]6O)[C@@H](O)[C@H](O)[C@H]5O)C4(C)C)[C@]3(C)[C@H](O)C[C@]12C [Mogroside IV-E] | 4 | 6 |  |  |
| C[C@H](CC[C@@H](O[C@@H]1O[C@H](CO)[C@@H](O)[C@H](O)[C@H]1O[C@@H]1O[C@H](CO)[C@@H](O)[C@H](O)[C@H]1O)C(C)(C)O)[C@H]1CC[C@@]2(C)[C@H]3CC=C4[C@@H](CC[C@H](O[C@@H]5O[C@H](CO[C@@H]6O[C@H](CO)[C@@H](O)[C@H](O)[C@H]6O)[C@@H](O)[C@H](O)[C@H]5O)C4(C)C)[C@]3(C)[C@H](O)C[C@]12C [Mogroside IV] | 0 | 43 |  |  |

| SMILES | Percentage of motility inhibition 0 h [1] [%] | Percentage of motility inhibition 24 h [2] [%] | Percentage of motility inhibition 0 h (110 µM) [%] | Percentage of motility inhibition 24 h (110 µM) [%] |
| --- | --- | --- | --- | --- |
| C[C@H](CC[C@@H](O[C@@H]1O[C@H](CO[C@@H]2O[C@H](CO)[C@@H](O)[C@H](O)[C@H]2O)[C@@H](O)[C@H](O)[C@H]1O[C@@H]1O[C@H](CO)[C@@H](O)[C@H](O)[C@H]1O)C(C)(C)O)[C@H]1CC[C@@]2(C)[C@@H]3CC=C4[C@@H](CC[C@H](O[C@@H]5O[C@H](CO[C@@H]6O[C@H](CO)[C@@H](O)[C@H](O)[C@H]6O)[C@@H](O)[C@H](O)[C@H]5O)C4(C)C)[C@]3(C)[C@H](O)C[C@]12C [Mogroside V] | 19 | 12 |  |  |
| CC1(C)CC[C@]2(C(=O)O[C@@H]3O[C@H](CO)[C@@H](O)[C@H](O)[C@H]3O)CC[C@]3(C)C(=CC[C@@H]4[C@@]5(C)CC[C@H](O[C@@H]6O[C@H](C(=O)O)[C@@H](O)[C@H](O[C@@H]7OC[C@@H](O)[C@H](O)[C@H]7O)[C@H]6O)C(C)(C)[C@@H]5CC[C@]43C)[C@@H]2C1 [Momordin IIc] | 0 | 0 |  |  |
| CC1(C)CC[C@]2(C(=O)O)CC[C@]3(C)C(=CC[C@@H]4[C@@]5(C)CC[C@H](O[C@@H]6O[C@H](C(=O)O)[C@@H](O)[C@H](O[C@@H]7OC[C@@H](O)[C@H](O)[C@H]7O)[C@H]6O)C(C)(C)[C@@H]5CC[C@]43C)[C@@H]2C1 [Momordin Ic] | 12 | 4 |  |  |
| O=C(O)C1=CO[C@@H](O[C@@H]2O[C@H](CO)[C@@H](O)[C@H](O)[C@H]2O)[C@H]2[C@@H]1C=C[C@]2(O)CO [Monotropein] | 0 | 0 |  |  |
| Cl.N=C(N=C(N)N)N1CCOCC1 [Moroxydine (hydrochloride)] | 13 | 8 |  |  |
| CO[C@@]1(NC(=O)C(C(=O)[O-])c2ccc(O)cc2)C(=O)N2C(C(=O)[O-])=C(CSc3nnnn3C)CO[C@@H]21.[Na+].[Na+] (some centres unmarked) [Moxalactam (sodium salt)] | 22 | 8 |  |  |
| CC(C)=CCc1c(-c2ccc(O)cc2O)oc2c(CC=C(C)C)c(O)cc(O)c2c1=O [Mulberrin] | 32 | 5 |  |  |
| CNc1nc2nc[nH]c2c(=O)[nH]1 [N2‐Methylguanine] |  |  | 14 | 43 |
| CC1(C)CC(NC(=O)C(=O)Nc2ccc(Cl)cc2)CC(C)(C)N1 [NBD‐556] | 45 | 11 |  |  |
| CC1(C)CC(NC(=O)C(=O)Nc2ccc(Br)cc2)CC(C)(C)N1 [NBD‐557] | 22 | 14 |  |  |
| C[C@@]1(O)[C@H](O)[C@@H](CO)O[C@H]1n1ccc(N)nc1=O [NM107] | 37 | 27 |  |  |
| CCOc1ccc2ccccc2c1C(=O)N[C@@H]1C(=O)N2[C@@H]1SC(C)(C)[C@@H]2C(=O)[O-].O.[Na+] [Nafcillin (sodium monohydrate)] | 12 | 2 |  |  |
| CCn1cc(C(=O)[O-])c(=O)c2ccc(C)nc21.[Na+] [Nalidixic acid (sodium salt)] | 0 | 0 |  |  |
| CC(C)(C)NCc1cc(Nc2ccnc3cc(Cl)ccc23)c2c(c1O)CCCC2.O=P(O)(O)O.O=P(O)(O)O [Naphthoquine (phosphate)] | 28 | 8 |  |  |
| O=C1N[C@@H]2C(=C[C@H](O)[C@@H](O)[C@H]2O)c2cc3c(c(O)c21)OCO3 [Narciclasine] | 32 | 14 |  |  |
